The values that follow come from patent publication EP4467141A1, “PYRAZOLO-QUINOLINES AS SELECTIVE INHIBITORS OF GENOTOXIC STRESS-INDUCED IKK/NF- KB PATHWAYS FOR CANCER THERAPY” (Max-Delbrück-Centrum für Molekulare Medizin in der …, priority 2023, dated 2024).

Common to all, as to experiment: Kinase panel study
What all share (format): biochemical
Common to all, as to details: read-out: Percentage of inhibition; for inhibition at 1 µM: 1000nM; for inhibition at 10 µM: 10000nM

The target in one test is T1, CDK4/cyclin D1 (Homo sapiens, UniProt P11802).
T1 construct: purchased Thermo Fisher Scientific
T1 sequence (P11802 whole entry): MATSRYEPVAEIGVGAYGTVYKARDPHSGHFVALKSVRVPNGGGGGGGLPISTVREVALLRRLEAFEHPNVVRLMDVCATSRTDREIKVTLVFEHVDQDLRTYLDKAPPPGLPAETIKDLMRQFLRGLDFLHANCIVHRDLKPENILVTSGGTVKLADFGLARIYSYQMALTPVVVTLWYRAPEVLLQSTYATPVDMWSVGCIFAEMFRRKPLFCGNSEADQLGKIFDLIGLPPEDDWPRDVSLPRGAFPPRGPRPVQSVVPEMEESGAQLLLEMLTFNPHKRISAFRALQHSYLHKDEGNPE
T1 sequence (P24385 whole entry partner): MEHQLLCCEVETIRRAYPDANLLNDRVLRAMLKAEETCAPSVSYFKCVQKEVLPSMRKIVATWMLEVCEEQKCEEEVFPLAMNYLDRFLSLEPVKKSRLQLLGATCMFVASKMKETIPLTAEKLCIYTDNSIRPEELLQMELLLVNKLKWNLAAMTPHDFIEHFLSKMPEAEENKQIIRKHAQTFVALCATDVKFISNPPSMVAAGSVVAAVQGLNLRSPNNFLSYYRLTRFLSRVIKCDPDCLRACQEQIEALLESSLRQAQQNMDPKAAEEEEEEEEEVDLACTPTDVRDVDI
In outline:
(§1)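 Single-point inhibition data at 10 µM or 1 µM compound are shown. They were generated in ZLyte- or Adapta-format biochemical assays performed externally under standard conditions.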

For the next test, the target named is T2, EPHB1 (Homo sapiens, UniProt P54762).
T2 construct: purchased Thermo Fisher Scientific
T2 sequence (P54762 18-984): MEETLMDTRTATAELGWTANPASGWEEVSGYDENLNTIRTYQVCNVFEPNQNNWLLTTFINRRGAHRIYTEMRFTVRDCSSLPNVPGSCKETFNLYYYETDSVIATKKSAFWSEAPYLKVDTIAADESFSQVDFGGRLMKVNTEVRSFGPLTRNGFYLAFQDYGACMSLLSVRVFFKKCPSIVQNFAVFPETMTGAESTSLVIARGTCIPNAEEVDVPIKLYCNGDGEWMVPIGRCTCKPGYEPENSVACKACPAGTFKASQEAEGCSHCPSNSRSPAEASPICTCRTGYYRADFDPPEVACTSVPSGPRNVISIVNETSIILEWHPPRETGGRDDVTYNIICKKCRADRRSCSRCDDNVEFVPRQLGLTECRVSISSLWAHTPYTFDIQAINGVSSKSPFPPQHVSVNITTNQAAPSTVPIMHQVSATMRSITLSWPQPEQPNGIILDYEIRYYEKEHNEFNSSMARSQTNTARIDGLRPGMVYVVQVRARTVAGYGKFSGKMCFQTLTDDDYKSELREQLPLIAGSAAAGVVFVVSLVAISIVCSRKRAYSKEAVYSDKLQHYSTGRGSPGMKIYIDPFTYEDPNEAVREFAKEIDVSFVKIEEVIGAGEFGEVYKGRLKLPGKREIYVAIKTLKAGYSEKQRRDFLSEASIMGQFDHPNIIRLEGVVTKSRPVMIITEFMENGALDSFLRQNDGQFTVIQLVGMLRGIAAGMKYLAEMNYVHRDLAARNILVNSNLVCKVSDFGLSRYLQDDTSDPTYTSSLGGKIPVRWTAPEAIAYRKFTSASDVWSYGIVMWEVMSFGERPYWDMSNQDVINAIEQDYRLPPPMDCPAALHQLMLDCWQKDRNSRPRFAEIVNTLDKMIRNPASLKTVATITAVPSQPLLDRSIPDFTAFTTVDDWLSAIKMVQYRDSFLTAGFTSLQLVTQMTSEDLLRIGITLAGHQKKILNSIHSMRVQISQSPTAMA
In a few lines: as §1

A further test addresses T3, TXK (Homo sapiens, UniProt P42681).
T3 construct: purchased Thermo Fisher Scientific
T3 sequence (P42681 1-527): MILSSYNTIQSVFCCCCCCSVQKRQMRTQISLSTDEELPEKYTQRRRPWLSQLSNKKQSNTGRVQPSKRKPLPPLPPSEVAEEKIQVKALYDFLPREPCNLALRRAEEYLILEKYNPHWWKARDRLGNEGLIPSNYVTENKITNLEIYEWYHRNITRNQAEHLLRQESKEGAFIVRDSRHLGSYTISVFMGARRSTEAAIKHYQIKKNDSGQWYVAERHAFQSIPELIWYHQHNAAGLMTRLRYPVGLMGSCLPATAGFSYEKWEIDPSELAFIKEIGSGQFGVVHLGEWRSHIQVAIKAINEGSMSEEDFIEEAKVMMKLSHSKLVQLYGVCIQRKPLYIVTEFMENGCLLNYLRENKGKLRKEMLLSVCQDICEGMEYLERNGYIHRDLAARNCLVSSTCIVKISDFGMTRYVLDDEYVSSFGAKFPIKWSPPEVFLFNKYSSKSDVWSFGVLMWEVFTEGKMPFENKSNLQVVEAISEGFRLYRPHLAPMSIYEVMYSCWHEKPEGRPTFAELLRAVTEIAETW
In outline:
as §1

A further test deals with T4, GRK6 (Homo sapiens, UniProt P43250).
T4 construct: purchased Thermo Fisher Scientific
T4 sequence (P43250 whole entry): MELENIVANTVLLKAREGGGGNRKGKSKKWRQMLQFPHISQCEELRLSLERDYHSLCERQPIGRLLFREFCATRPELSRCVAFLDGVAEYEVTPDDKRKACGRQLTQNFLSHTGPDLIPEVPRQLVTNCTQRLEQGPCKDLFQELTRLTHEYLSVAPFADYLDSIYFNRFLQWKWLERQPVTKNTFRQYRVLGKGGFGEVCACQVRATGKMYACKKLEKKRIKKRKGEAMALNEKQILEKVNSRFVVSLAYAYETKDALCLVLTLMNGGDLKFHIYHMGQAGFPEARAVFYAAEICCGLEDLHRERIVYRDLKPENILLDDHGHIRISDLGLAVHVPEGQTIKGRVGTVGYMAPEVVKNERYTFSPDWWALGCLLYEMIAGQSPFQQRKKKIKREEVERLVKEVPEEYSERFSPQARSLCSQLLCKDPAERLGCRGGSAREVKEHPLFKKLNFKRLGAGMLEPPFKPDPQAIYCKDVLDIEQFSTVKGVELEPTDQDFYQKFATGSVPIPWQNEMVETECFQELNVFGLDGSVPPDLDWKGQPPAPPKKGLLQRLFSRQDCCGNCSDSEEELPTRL
In outline:
as §1

The target in the next test is T5, AURKC (Aurora C) (Homo sapiens, UniProt Q9UQB9).
T5 construct: purchased Thermo Fisher Scientific
T5 sequence (Q9UQB9 1-309): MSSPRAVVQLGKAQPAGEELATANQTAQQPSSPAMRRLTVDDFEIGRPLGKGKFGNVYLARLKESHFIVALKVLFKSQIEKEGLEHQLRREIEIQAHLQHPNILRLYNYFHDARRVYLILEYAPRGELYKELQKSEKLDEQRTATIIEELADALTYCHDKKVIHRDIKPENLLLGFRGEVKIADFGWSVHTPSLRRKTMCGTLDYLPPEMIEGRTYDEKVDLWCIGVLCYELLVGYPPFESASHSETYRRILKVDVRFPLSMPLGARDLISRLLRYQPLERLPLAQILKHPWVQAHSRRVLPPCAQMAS
In outline:
as §1

Another test has as its target T6, ERBB2 (HER2) (Homo sapiens, UniProt P04626).
T6 construct: purchased Thermo Fisher Scientific
In outline: as §1

Another test concerns the target T7, AMPK (A1/B2/G2) (Homo sapiens, UniProt Q13131).
T7 construct: purchased Thermo Fisher Scientific
In a few lines: as §1

T7 sequence (Q13131 whole entry): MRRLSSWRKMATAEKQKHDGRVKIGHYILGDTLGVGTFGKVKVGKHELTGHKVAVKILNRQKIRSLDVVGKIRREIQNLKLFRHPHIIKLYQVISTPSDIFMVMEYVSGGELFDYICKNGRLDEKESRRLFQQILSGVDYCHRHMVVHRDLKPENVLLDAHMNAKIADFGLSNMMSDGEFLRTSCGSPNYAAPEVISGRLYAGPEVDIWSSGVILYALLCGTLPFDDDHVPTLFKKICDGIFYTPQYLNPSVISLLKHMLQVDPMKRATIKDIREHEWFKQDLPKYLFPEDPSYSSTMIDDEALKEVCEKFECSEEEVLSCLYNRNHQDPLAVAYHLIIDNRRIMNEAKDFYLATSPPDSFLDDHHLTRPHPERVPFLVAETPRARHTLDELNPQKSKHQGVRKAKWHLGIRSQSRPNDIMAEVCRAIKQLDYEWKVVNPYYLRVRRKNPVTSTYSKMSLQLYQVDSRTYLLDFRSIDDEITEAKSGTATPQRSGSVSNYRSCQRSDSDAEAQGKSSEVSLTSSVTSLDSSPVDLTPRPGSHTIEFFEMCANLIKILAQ
T7 sequence (O43741 whole entry partner): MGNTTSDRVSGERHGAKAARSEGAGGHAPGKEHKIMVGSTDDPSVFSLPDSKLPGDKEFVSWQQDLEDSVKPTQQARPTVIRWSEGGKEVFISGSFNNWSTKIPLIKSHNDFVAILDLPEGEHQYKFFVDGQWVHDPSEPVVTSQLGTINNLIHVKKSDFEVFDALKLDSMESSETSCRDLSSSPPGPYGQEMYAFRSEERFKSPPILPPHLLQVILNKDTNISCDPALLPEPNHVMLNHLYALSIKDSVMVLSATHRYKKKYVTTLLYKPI
T7 sequence (Q9UGJ0 whole entry partner): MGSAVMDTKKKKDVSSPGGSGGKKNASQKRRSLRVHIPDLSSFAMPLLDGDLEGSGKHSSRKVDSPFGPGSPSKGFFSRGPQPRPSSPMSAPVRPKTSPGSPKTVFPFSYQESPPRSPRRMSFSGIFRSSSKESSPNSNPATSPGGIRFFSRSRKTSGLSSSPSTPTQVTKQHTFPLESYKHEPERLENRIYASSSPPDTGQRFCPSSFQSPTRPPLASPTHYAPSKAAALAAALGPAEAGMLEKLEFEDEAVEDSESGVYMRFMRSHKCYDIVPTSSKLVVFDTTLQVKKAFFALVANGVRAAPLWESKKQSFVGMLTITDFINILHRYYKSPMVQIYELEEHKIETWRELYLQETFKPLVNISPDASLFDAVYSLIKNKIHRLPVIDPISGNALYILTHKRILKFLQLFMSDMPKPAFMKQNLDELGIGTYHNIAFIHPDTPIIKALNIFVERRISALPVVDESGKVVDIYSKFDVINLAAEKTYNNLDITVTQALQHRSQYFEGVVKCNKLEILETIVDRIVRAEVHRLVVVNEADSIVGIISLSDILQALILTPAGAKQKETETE
T6 sequence (P04626 23-1255): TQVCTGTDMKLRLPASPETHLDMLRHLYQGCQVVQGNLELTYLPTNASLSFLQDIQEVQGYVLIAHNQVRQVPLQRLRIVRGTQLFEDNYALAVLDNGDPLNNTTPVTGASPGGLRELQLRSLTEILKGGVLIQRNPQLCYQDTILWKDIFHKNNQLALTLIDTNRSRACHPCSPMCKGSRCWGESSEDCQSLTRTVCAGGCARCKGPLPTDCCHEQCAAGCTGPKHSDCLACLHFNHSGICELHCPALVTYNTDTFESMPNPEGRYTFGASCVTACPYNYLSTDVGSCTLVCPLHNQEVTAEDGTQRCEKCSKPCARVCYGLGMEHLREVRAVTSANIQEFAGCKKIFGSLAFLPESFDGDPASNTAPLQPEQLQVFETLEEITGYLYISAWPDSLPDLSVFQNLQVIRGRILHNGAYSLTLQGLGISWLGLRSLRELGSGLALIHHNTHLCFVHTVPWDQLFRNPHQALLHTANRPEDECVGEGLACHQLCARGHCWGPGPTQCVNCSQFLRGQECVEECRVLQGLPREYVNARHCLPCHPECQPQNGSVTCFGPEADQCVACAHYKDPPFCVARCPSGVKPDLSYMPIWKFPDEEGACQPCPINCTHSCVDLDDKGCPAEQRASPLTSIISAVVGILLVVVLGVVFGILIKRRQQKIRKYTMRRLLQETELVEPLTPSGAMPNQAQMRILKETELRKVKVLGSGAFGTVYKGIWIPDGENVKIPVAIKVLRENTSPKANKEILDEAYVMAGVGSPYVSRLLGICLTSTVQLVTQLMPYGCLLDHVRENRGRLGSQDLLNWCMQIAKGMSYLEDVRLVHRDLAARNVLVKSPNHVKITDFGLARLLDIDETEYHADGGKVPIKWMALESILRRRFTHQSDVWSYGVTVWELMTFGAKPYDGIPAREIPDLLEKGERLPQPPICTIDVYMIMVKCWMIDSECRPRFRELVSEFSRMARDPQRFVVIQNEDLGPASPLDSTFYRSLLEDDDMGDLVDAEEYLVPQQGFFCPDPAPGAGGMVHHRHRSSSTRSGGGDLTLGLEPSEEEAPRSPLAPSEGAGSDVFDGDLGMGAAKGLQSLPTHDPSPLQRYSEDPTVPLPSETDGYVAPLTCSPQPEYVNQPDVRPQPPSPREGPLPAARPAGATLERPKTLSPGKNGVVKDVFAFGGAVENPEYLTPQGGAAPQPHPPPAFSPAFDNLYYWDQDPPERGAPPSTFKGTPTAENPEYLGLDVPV

In general, inhibition refers to the drop in the measured response relative to a control, in per cent. With `COc1ccc2c(c1OC)c(=O)n1c3ccc(O)cc3c3ccnc2c31` [MW01, 5-Hydroxy-10,11-dimethoxy-9H-benzo[c]indolo[3,2,1-ij][1,5]naphthyridin-9-one], the inhibition at 1 µM at CDK4/cyclin D1 was -8%; on EPHB1, -3%; on TXK it was 12%; on GRK6 it was 0%; on AURKC (Aurora C), 8%; on ERBB2 (HER2), 2%. Moreover, the inhibition at 1 µM at AMPK (A1/B2/G2) is -6%. Also, the inhibition at 10 µM on CDK4/cyclin D1 was -4%; at EPHB1, 9%; on TXK, 29%; on GRK6, 5%; at AURKC (Aurora C), 10%; at ERBB2 (HER2), 4%. The inhibition at 10 µM on AMPK (A1/B2/G2) was determined as 5%.

Take `COc1ccc2cc3c(N)nn(C(=O)c4cccc(N(C)C)c4)c3nc2c1` [MW05, (3-Amino-7-methoxypyrazolo[3,4-b]quinolin-1-yl)-[3-(dimethylamino)phenyl]methanone]: the inhibition at 1 µM is -3% on CDK4/cyclin D1; -3% at EPHB1; 4% at TXK; 6% on GRK6; 9% on AURKC (Aurora C); -5% on ERBB2 (HER2). The inhibition at 1 µM at AMPK (A1/B2/G2) was -10%. Besides, the inhibition at 10 µM was -1% on CDK4/cyclin D1; -6% at EPHB1; -13% on TXK; 3% on GRK6; 9% at AURKC (Aurora C); -19% on ERBB2 (HER2). Further, the inhibition at 10 µM on AMPK (A1/B2/G2) is 4%.
